In the supplement of paper PMC10307832:

What was measured:
Test in all cases: relative viability (nuclei count vs DMSO), 5 days (fraction); higher = more cells survive
Seliciclib + Bortezomib = compound: CC[C@H](CO)Nc1nc(NCc2ccccc2)c2ncn(C(C)C)c2n1 [Seliciclib] + CC(C)C[C@H](NC(=O)[C@H](Cc1ccccc1)NC(=O)c1cnccn1)B(O)O [Bortezomib] (partner 0.002 µM)
Summary of the method: (§1)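 Relative viability equals treated-well nuclei counts divided by vehicle-well nuclei counts. Counts came from 4× images of lung cancer cell lines grown in 1536-well plates for 5 days after pin-tool dosing on the day after seeding. Dosing used one drug alone or a fixed anchor-drug dose plus five library-drug doses (not always all listed) in √10 steps, and values are medians of duplicate plates.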

Seliciclib + Alpelisib = compound: CC[C@H](CO)Nc1nc(NCc2ccccc2)c2ncn(C(C)C)c2n1 [Seliciclib] + Cc1nc(NC(=O)N2CCC[C@H]2C(N)=O)sc1-c1ccnc(C(C)(C)C(F)(F)F)c1 [Alpelisib] (partner 2 µM)
Summary of the method: as §1

Seliciclib + Olaparib = compound: CC[C@H](CO)Nc1nc(NCc2ccccc2)c2ncn(C(C)C)c2n1 [Seliciclib] + O=C(c1cc(Cc2n[nH]c(=O)c3ccccc23)ccc1F)N1CCN(C(=O)C2CC2)CC1 [Olaparib] (partner 8 µM)
Summary of the method: as §1

Seliciclib + Pemetrexed = compound: CC[C@H](CO)Nc1nc(NCc2ccccc2)c2ncn(C(C)C)c2n1 [Seliciclib] + Nc1nc2[nH]cc(CCc3ccc(C(=O)N[C@@H](CCC(=O)O)C(=O)O)cc3)c2c(=O)[nH]1 [Pemetrexed] (partner 0.2 µM)
Summary of the method: as §1

Row | Cell Line | relative viability (Seliciclib + Bortezomib; first compound 0.08 µM) | relative viability (Seliciclib + Bortezomib; first compound 0.253 µM) | relative viability (Seliciclib + Bortezomib; first compound 0.8 µM) | relative viability (Seliciclib + Bortezomib; first compound 2.53 µM) | relative viability (Seliciclib + Bortezomib; first compound 8 µM) | relative viability (Seliciclib + Alpelisib; first compound 0.08 µM) | relative viability (Seliciclib + Alpelisib; first compound 0.253 µM) | relative viability (Seliciclib + Alpelisib; first compound 0.8 µM) | relative viability (Seliciclib + Alpelisib; first compound 2.53 µM) | relative viability (Seliciclib + Alpelisib; first compound 8 µM) | relative viability (Seliciclib + Olaparib; first compound 0.08 µM) | relative viability (Seliciclib + Olaparib; first compound 0.253 µM) | relative viability (Seliciclib + Olaparib; first compound 0.8 µM) | relative viability (Seliciclib + Olaparib; first compound 2.53 µM) | relative viability (Seliciclib + Olaparib; first compound 8 µM) | relative viability (Seliciclib + Pemetrexed; first compound 0.08 µM) | relative viability (Seliciclib + Pemetrexed; first compound 0.253 µM) | relative viability (Seliciclib + Pemetrexed; first compound 0.8 µM) | relative viability (Seliciclib + Pemetrexed; first compound 8 µM) | relative viability (Seliciclib + Pemetrexed; first compound 2.53 µM)
1 | NCI-H1299 | 0.995 | 1.1 | 0.985 | 1.04 | 0.992 | 1.02 | 1.17 | 1.1 | 1.08 | 0.986 | 0.967 | 1.08 | 0.957 | 0.949 | 0.954 |  |  |  |  | 
2 | NCI-H1395 |  |  |  |  |  | 1.08 | 0.843 | 1.04 | 1.07 | 1.02 | 0.459 | 0.422 | 0.43 |  | 0.448 | 0.932 | 0.757 | 0.854 | 0.756 | 
3 | NCI-H1563 | 0.856 | 0.79 | 0.892 | 0.806 | 0.861 | 0.952 | 0.872 | 0.954 | 0.927 | 0.882 |  |  |  |  |  | 0.8 | 0.716 | 0.85 | 0.668 | 0.698
4 | NCI-H1648 |  |  |  |  |  |  |  |  |  |  | 1.2 | 0.968 | 0.735 | 0.734 | 0.397 | 0.767 | 0.922 | 0.963 | 0.591 | 0.675
5 | NCI-H1650 | 0.214 | 0.217 | 0.2 | 0.21 | 0.178 |  |  |  |  |  | 0.576 | 0.804 | 0.754 | 0.666 | 0.756 | 0.429 | 0.346 | 0.36 | 0.399 | 0.427
6 | NCI-H1703 | 0.416 | 0.297 | 0.371 | 0.353 | 0.249 | 0.322 | 0.421 | 0.288 | 0.354 | 0.229 | 0.467 | 0.54 | 0.528 | 0.439 | 0.352 |  |  |  |  | 
7 | NCI-H1793 |  |  |  |  |  | 0.641 | 0.68 | 0.508 | 0.708 | 0.742 | 0.942 | 0.655 | 0.834 | 1.09 | 0.761 | 0.842 | 0.741 | 0.77 | 0.912 | 0.857
8 | NCI-H1944 |  |  |  |  |  | 0.813 | 0.859 | 0.77 | 0.904 | 0.666 | 0.377 | 0.394 | 0.348 | 0.425 | 0.392 | 0.575 | 0.634 | 0.453 | 0.428 | 0.608
9 | NCI-H2170 |  |  |  |  |  | 0.801 | 0.585 | 0.824 | 0.904 | 0.834 | 0.521 |  | 0.582 | 0.654 | 0.609 | 0.269 |  | 0.262 | 0.26 | 0.268
10 | NCI-H2342 |  |  |  |  |  |  |  |  |  |  | 0.417 | 0.394 | 0.347 | 0.429 | 0.453 | 0.748 | 0.779 | 0.752 | 0.711 | 0.693
11 | SK-MES-1 |  |  |  |  |  | 0.811 | 0.85 | 0.846 | 0.873 | 0.948 | 0.764 | 0.726 | 0.647 | 0.564 | 0.342 | 1 | 1.17 | 0.932 | 0.708 | 0.862
12 | SW 900 |  |  |  |  |  |  |  |  |  |  | 0.769 | 0.89 | 0.79 | 0.721 | 0.437 | 0.515 | 0.501 | 0.484 | 0.406 | 0.451
